Measured values published in PubChem BioAssay (NCI).
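Five concentrations, 48 hours, 96-well plates. TGI marks complete inhibition of growth.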

Key:
Assay in all cases: growth of human tumour cells (NCI), 48 h
HOP-62 NSCLC = system: HOP-62 NSCLC
SF-539 CNS = system: SF-539 CNS
UO-31 renal = system: UO-31 renal
MOLT-4 leukemia = system: MOLT-4 leukemia
MDA-N = system: MDA-N
MCF7 breast = system: MCF7 breast
786-0 renal = system: 786-0 renal
HT29 colon = system: HT29 colon
SK-OV-3 ovarian = system: SK-OV-3 ovarian
KM12 colon = system: KM12 colon

SMILES | TGI (HOP-62 NSCLC) [µM] | TGI (SF-539 CNS) [µM] | TGI (UO-31 renal) [µM] | TGI (MOLT-4 leukemia) [µM] | TGI (MDA-N) [µM] | TGI (MCF7 breast) [µM] | TGI (786-0 renal) [µM] | TGI (HT29 colon) [µM] | TGI (SK-OV-3 ovarian) [µM] | TGI (KM12 colon) [µM]
O=c1oc2ccccc2c(Nc2ccc3c(c2)Oc2ccccc2O3)c1[N+](=O)[O-] | > 100 | 36.4 | > 100 | > 100 | > 100 | 47.7 | 38.8 | > 100 | 40.9 | > 100
O=c1c2ncn(COCCCl)c2n(-c2ccccc2)c(=S)n1-c1ccccc1 | > 100 | > 100 | > 100 | > 100 | > 100 | > 100 | > 100 | > 100 | > 100 | > 100
CNC(=O)Oc1ccc(-c2cn3cc(OC(=O)NC)ccc3n2)cc1 | > 100 | > 100 | > 100 | > 100 | > 100 | > 100 | > 100 | > 100 | > 100 | > 100
CC1=NN2C(=N)/C(=C/c3ccco3)C(=O)N=C2S1 | > 100 | > 100 | > 100 | > 100 | > 100 | > 100 | > 100 | > 100 | > 100 | > 100
OCC1OC(n2cnc3c(Cl)nc(Nc4ccccc4)nc32)CC1O (stereo not given) | > 100 | > 100 | 33.7 | > 100 | > 100 | > 100 | > 100 | > 100 | > 100 | > 100
C=C1C(=O)CC2C(=O)C(C)(O)CC/C=C(\C)C(=O)CC12 (stereo not given) | > 100 | 59.8 | 21.1 | 17.1 | 37.1 | 36.6 | 35.6 | > 64.9 | > 100 | > 100
CC1=NN(c2ccc(S(=O)(=O)O)cc2)C2(C1)SCC(=O)N2c1nc2ccccc2s1 (stereo not given) | > 100 | > 100 | > 100 | > 100 | > 100 | > 100 | > 100 | > 100 | > 100 | > 100
CN(C)c1ccc(C2SCC(=O)N2NS(=O)(=O)c2cccc(C(=O)O)c2)cc1 (stereo not given) | > 100 | > 100 | > 100 | > 100 | > 100 | > 100 | 31 | > 100 | > 100 | > 100
O=c1nc2c(c(-c3ccccc3Cl)[nH]1)COC/C2=C\c1ccccc1Cl | > 100 | > 100 | > 100 | > 100 | > 100 | > 100 | > 100 | > 100 | > 100 | > 100
Cc1ccc(-c2cc(N)n(-c3nc4c(c(=O)n(C)c(=O)n4C)n3C)n2)cc1 | 63.9 | > 100 | > 100 | > 100 | > 100 | > 100 | > 100 | > 100 | > 100 | > 100
C1CCC2C(C1)CCCC2NC1=NCCO1 (stereo not given) | > 100 | > 100 | > 100 | > 100 | > 100 | > 100 | > 100 | > 100 | > 100 | > 100
COc1ccc(Nc2nc(NS(=O)(=O)c3cc(C)c(Cl)cc3S)n[nH]2)cc1 | > 100 | > 100 | > 100 | > 100 | > 100 | > 100 | > 100 | > 100 | > 100 | > 100
Cc1ccc([C@H]2CC(=O)C[C@H](c3ccc(C)cc3)C23C(=O)c2ccccc2C3=O)cc1 | 41.8 | > 100 | > 100 | > 100 | > 100 | > 100 | 31.7 | > 100 | > 100 | > 100
CC(=O)O[C@H]1CC[C@@]2(C)C(=CC[C@H]3[C@@H]4C[C@H](N5CCCC5)[C@H](OC(C)=O)[C@@]4(C)CC[C@@H]32)C1 | > 100 | > 65.3 | > 100 | > 100 | > 84.4 | > 100 | > 100 | 69.4 | > 100 | > 100
COC(=O)[C@@H]1CCCN1CCN1CCC[C@H]1C(=O)OC | > 100 | > 100 | > 100 | > 100 | > 100 | > 100 | > 100 | > 100 | > 100 | > 100
CCC1(C(=O)OC(C)(C)C)OC12C(C)CCCC2C (stereo not given) | > 100 | > 100 | > 100 | 41.2 | > 100 | 51.4 | > 100 | > 100 | > 100 | > 100
